For the assay, the system named is TGF-β activation. The assay can be described thus: Inventors' additional tests of TGF-β activation with synthetic KRFK and LSKL peptides. The text has this: Moreover, the group of Murphy-Ullrich at the University of Alabama, U.S.A. investigated the adherent-type TGF-β activation reaction by a glycoprotein, thrombospondin 1, and reported that TGF-β is activated by binding of KRFK sequence corresponding to amino acid numbers 412-415 of thrombospondin 1 to LSKL sequence corresponding to amino acid numbers 54-57 of LAP, and that the synthetic KRFK peptide activates TGF-β, whereas the synthetic LSKL peptide inhibits the TGF-β activation reaction (Schultz-Cherry et al., J. Biol. Chem. 270: 7304-7310, 1995; Crawford et al., Cell 93: 1159-1170, 1998; Ribeiro et al., J. Biol. Chem. 274: 13586-13593, 1999; Murphy-Ullrich and Poczatek Cytokine & Growth Factor Reviews 11: 59-69, 2000). The LSKL sequence derived from amino acid numbers 54-57 of the aforementioned LAP overlaps with the plasmin cleavage site K56-L57 identified by the present inventors. By binding to and cutting this portion, respectively, thrombospondin 1 and proteases may inhibit a noncovalent bond between this portion and active TGF-β molecule, resulting in release of the active TGF-β molecule from a latent complex (namely the TGF-β activation reaction). […] Murphy-Ullrich et al. indicated an involvement of a thrombospondin 1-dependent adherent-type TGF-β activation reaction in the pathogenesis of lung or pancreatic diseases, but not in the pathogenesis of liver diseases.

Experimental findings from patent US7732401B2, “Inhibitor of TGF-β activation reaction” (Riken, priority 2007, dated 2010) are described below.

LSKL [LSKL peptide]: the “inhibition of TGF-β activation” value was “could not reproduce”.
